We go through one substance from patent US20200318165A1, “Rapid Identification of Microorganisms” (Board of Regents of the Nevada System of Higher Education, …, priority 2015, published 2020).

Series [1] in a line: Fluorescence of the probe itself without bacteria. The series is classed as physicochemical. Conditions: excitation of 568 nm laser. The source says: Methods were developed to distinguish different species of live bacteria by functionalization of C60 with RNA oligonucleotides hybridized with reporter compounds. The signature RNA oligonucleotides are designed in accordance with the signature information on 16s ribosome RNA, which is unique to each species (Reischl et al., Clin Chem 52, 1985-1987 (2006) and Dresios et al., Journal of molecular biology 345, 681-693 (2005), each of which is hereby incorporated by reference in its entirety). The strategy to recognize a certain bacteria is shown in FIGS. 20A-20C and operates as follows: • (1) C60 molecules were functionalized with signature RNA oligonucleotides containing signature information (e.g., calling card) of a certain species. The Signature RNA oligonucleotides were typically screened through bioinformatics analysis. • (2) A reporter sequence, which is conjugated to a fluorophore, was hybridized with the signature sequence. The fluorophore was silent while hybridized but fluoresced once released. • (3) The C60 complex penetrated the bacteria and released the reporter if the bacteria contained ribosomal signature information that matches the signature RNA oligonucleotide on the C60 complex. The released reporter sequence emitted a fluorescent signal and was detected while free in the cytoplasm. […]

Another series relates to E. coli. Put plainly: Cellular uptake monitored by Transmission Electron Microscopy. The series is classed as cell-based. Conditions: 5 μg/mL, 30 min, FIG. 3A. The method, then:
(§1) TEM was used to examine whether the retention of C60-pyrrolidine tris acid was localized within the cytosol. Microorganisms were incubated with C60-pyrrolidine tris acid (5 μg/mL) for 30 min. Cells were pelleted by centrifugation at 5,000 rcf (5 min) and washed 5 times with DI H2O. Microorganisms were fixed in 2.5% glutaraldehyde/PBS solution for 30 min. The cells were then pelleted by centrifugation at 5,000 rcf for 5 min. The cell pellet was placed in fresh 2.5% glutaraldehyde/PBS solution at 4° C. overnight. Next, cell pellets were dehydrated by a series of acetone treatments (30% for 15 min, 50% for 15 min, 70% for 15 min, 90% for 15 min and a final treatment at 100% for 30 min, and repeated 3 times), embedded in resin (2:1 mix of propylene oxide:resin for 1 hour, 1:1 mix of propylene oxide:resin for 1 hour, 1:2 mix of propylene oxide: resin for 1 hour, 100% resin overnight, and change to fresh resin 1 h), incubated for 24 h at 37° C., sectioned (60 nm in thickness), and imaged using a Tecnai 12 TEM.
(§2) To test the hypothesis that functionalized C60-pyrrolidine tris acid internalizes within the cell, microorganisms were imaged with TEM. Both E. coli and B. subtilis were incubated with C60-pyrrolidine tris acid, washed to remove excess compound, sectioned into slices of 60 nm thickness, and then imaged by TEM. […]

Another series has as its system B. subtilis. The description is as above. Conditions: 5 μg/mL, 30 min, FIG. 3B. Format: cell-based. The method, then: as §1, §2

In the case of C60-pyrrolidine tris acid, in series [1], the Autofluorescence entry was “no autofluorescence”. In addition, the “Localization in sectioned cells (TEM)” value with E. coli and in the series on B. subtilis was “localizes within the cell” throughout.
